Reference: PMC10548524, “Evolutionary adaptation from hydrolytic to oxygenolytic catalysis at the α/β-hydrolase fold” (Chemical Science, 2023)

Key:
[1] = biological target: T1, HOD (1-H-3-hydroxy-4-oxoquinaldine 2,4-dioxygenase) (Paenarthrobacter nitroguajacolicus, UniProt O31266, S101A); test: X-ray crystallography, normoxic and O2-pressurised (soak-and-freeze); assay type: binding; settings: 2.0 Å; with water (normoxic) or O2 (40 bar, 2 min) at the R-site; active site
T1 construct: crystallised protein; construct, tags and host only in supplement

[2] = biological target: T2, HOD (1-H-3-hydroxy-4-oxoquinaldine 2,4-dioxygenase) (Paenarthrobacter nitroguajacolicus, UniProt O31266, H251A); test: as above; assay type: binding; settings: 2.0 Å (normoxic) and 2.1 Å (hyperoxic, 40 bar O2, 2 min); active site, non-reactive substrate analogue
T2 construct: crystallised protein; construct, tags and host only in supplement

Compound: Cc1cc(=O)c2ccccc2[nH]1 [MQO, 2-methyl-quinolin-4(1H)-one]
- X-ray crystallography, normoxic and O2-pressurised (soak-and-freeze) [1]: we then solved the structure of HOD^S101A in a complex with MQO
- X-ray crystallography, normoxic and O2-pressurised (soak-and-freeze) [2]: MQO binds in the active site similarly to QND
